Each compound was assayed against T1, NEDD8 activating enzyme (Homo sapiens, UniProt Q8TBC4) (assay: Inhibition of recombinant human NAEalpha/N-terminal His-tagged NAEbeta expressed in baculovirus infected insect Sf9 cells using N-terminal FLAG tagged Nedd8 as substrate incubated for 105 mins in presence of N-terminal GST-tagged Ubc12 by FRET assay).
T1 sequence (Q8TBC4 whole entry): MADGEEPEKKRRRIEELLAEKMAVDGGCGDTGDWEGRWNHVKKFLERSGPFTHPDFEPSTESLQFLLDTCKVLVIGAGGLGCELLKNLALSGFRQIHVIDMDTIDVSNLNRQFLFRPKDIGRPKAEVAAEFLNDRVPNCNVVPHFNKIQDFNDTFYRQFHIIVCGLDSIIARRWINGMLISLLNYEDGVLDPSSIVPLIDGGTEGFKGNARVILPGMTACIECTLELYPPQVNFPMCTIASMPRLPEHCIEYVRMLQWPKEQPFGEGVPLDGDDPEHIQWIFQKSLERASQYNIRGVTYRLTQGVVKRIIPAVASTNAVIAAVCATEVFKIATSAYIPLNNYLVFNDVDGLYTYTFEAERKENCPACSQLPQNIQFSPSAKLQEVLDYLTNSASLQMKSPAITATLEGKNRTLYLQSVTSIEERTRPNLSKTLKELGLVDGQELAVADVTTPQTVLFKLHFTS
T1 sequence (Q13564 whole entry): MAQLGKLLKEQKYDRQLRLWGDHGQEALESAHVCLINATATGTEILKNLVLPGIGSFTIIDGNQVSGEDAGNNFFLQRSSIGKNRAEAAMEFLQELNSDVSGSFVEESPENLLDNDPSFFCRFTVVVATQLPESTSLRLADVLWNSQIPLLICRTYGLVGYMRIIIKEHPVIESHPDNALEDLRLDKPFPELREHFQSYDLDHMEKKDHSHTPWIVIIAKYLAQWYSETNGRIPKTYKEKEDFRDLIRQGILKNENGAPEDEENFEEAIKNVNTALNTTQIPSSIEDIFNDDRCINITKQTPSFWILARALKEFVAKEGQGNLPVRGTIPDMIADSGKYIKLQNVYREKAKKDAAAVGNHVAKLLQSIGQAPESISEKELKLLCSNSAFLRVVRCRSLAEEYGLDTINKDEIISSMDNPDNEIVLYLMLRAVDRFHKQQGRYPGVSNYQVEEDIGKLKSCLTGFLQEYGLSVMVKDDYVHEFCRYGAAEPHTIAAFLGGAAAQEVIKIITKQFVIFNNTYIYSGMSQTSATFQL

SMILES	IC50 [nM]
NS(=O)(=O)OC[C@H]1C[C@@H](O)[C@H](Nc2cc(N[C@H]3CCc4ccccc43)ncn2)C1	> 10000
NS(=O)(=O)OC[C@H]1C[C@@H](NC(=O)c2ccncc2)[C@H](O)[C@@H]1O	500 to 10000
CN(Cc1ccccc1)c1cc(N[C@@H]2C[C@H](COS(N)(=O)=O)[C@@H](O)[C@H]2O)ncn1	> 10000
Cn1c(-c2ccccc2)nc2ncnc(N[C@@H]3C[C@@H](COS(N)(=O)=O)[C@@H](O)C3)c21	500 to 10000
NS(=O)(=O)OC[C@H]1C[C@@H](NC(=O)c2ccccn2)[C@H](O)[C@@H]1O	> 10000
CC1(C)C[C@H](Nc2cc(O[C@@H]3C[C@@H](COS(N)(=O)=O)[C@@H](O)C3)ccn2)c2ccc(Cl)cc21	500 to 10000
CN(Cc1ccccc1)c1nccc(N[C@@H]2C[C@H](COS(N)(=O)=O)[C@@H](O)[C@H]2O)n1	> 10000
NS(=O)(=O)OC[C@@H]1C[C@@H](Nc2cc(N[C@H]3CCc4ccccc43)nc(=O)[nH]2)C[C@@H]1O	500 to 10000
Cc1nc(NCc2ccccc2)cc(N[C@@H]2C[C@H](COS(N)(=O)=O)[C@@H](O)[C@H]2O)n1	> 10000
NS(=O)(=O)OC[C@H]1C[C@@H](Nc2ccnc(NCC3CCCCC3)n2)[C@H](O)[C@@H]1O	500 to 10000
Cc1c(N[C@H]2CCc3ccccc32)ncnc1O[C@@H]1C[C@@H](COS(N)(=O)=O)[C@@H](O)C1	> 10000
NS(=O)(=O)OC[C@H]1C[C@@H](NC(=O)c2cccnc2)[C@H](O)[C@@H]1O	500 to 10000
NS(=O)(=O)OC[C@@H]1C[C@@H](Oc2cc(N3CCc4ccccc4C3)ncn2)C[C@@H]1O	> 10000
NS(=O)(=O)OC[C@H]1C[C@@H](Nc2cc(N[C@@H]3CCc4ccccc43)ncn2)[C@H](O)[C@@H]1O	≤ 500
NS(=O)(=O)OC[C@@H]1C[C@@H](Nc2ncnc3[nH]c(-c4cccc5ccccc45)nc23)C[C@@H]1O	≤ 500
Cc1nc(N)cc(N[C@@H]2C[C@H](COS(N)(=O)=O)[C@@H](O)[C@H]2O)n1	> 10000
NS(=O)(=O)OC[C@@H]1C[C@@H](Nc2ncnc3[nH]c(-c4ccccc4)nc23)C[C@@H]1O	≤ 500
NS(=O)(=O)OC[C@@H]1C[C@@H](Nc2cc(N[C@H]3CCc4ccccc43)ncn2)C[C@@H]1O	≤ 500
CN(C)C[C@H]1Cc2ccccc2[C@H]1Nc1cc(O[C@@H]2C[C@@H](COS(N)(=O)=O)[C@@H](O)C2)ncn1	500 to 10000

SMILES	IC50 [nM]
NS(=O)(=O)OC[C@H]1C[C@@H](Nc2cc(N[C@H]3CCCc4ccccc43)ncn2)[C@H](O)[C@@H]1O	≤ 500
Cc1cccc(-c2nc3c(N[C@@H]4C[C@@H](COS(N)(=O)=O)[C@@H](O)C4)ncnc3[nH]2)c1C	≤ 500
NS(=O)(=O)OC[C@H]1C[C@@H](Nc2cc(NCc3ccccc3)ncn2)[C@H](O)[C@@H]1O	≤ 500
NS(=O)(=O)OC[C@@H]1C[C@@H](Nc2ncnc3[nH]c(-c4ccccc4Oc4ccccc4)nc23)C[C@@H]1O	≤ 500
CN(C)C(=O)[C@H]1Cc2ccccc2[C@H]1Nc1cc(O[C@@H]2C[C@@H](COS(N)(=O)=O)[C@@H](O)C2)ncn1	500 to 10000
Cc1nc(N[C@H]2CCc3ccccc32)nc(N[C@@H]2C[C@H](COS(N)(=O)=O)[C@@H](O)[C@H]2O)n1	≤ 500
CC1(C)C[C@H](Nc2ncnc(N[C@@H]3C[C@@H](COS(N)(=O)=O)[C@@H](O)C3)c2F)c2ccccc21	≤ 500
NS(=O)(=O)OC[C@@H]1C[C@@H](Oc2ncnc3nc(-c4ccnc5cc(Cl)ccc45)[nH]c23)C[C@@H]1O	≤ 500
NS(=O)(=O)OC[C@@H]1C[C@@H](Nc2cc(N[C@H]3CCc4ccccc43)ncn2)[C@H](O)[C@@H]1O	≤ 500
NS(=O)(=O)OC[C@@H]1C[C@@H](Nc2ncnc3[nH]c(-c4ccccc4-c4ccccc4)nc23)C[C@@H]1O	500 to 10000
NS(=O)(=O)OC[C@@H]1C[C@@H](Nc2ncnc3[nH]c(-c4cccc5c4oc4ccccc45)nc23)C[C@@H]1O	≤ 500
NS(=O)(=O)OC[C@@H]1C[C@@H](Nc2ncnc3[nH]c(-c4cccc5ccccc45)cc23)C[C@@H]1O	≤ 500
NS(=O)(=O)OC[C@@H]1C[C@@H](Nc2ncnc3[nH]c(-c4ccccc4)cc23)C[C@@H]1O	≤ 500
NS(=O)(=O)OC[C@@H]1C[C@@H](Cc2cc(N[C@H]3CCc4ccccc43)ncn2)C[C@@H]1O	500 to 10000
NS(=O)(=O)OC[C@H]1C[C@@H](Nc2cc(N[C@H]3CCc4c(F)cccc43)ncn2)[C@H](O)[C@@H]1O	≤ 500
NS(=O)(=O)OC[C@@H]1C[C@@H](Nc2ncnc3[nH]c(-c4cccc(Cl)c4)nc23)C[C@@H]1O	≤ 500
NS(=O)(=O)OC[C@H]1C[C@@H](Nc2ccnc(NCc3ccccc3)n2)[C@H](O)[C@@H]1O	500 to 10000
NS(=O)(=O)OC[C@@H]1C[C@@H](Oc2ncnc3[nH]c(-c4ccccc4)nc23)C[C@@H]1O	≤ 500
NS(=O)(=O)OC[C@@H]1C[C@@H](Oc2cc(N[C@H]3CCc4ccccc43)ncn2)C[C@@H]1O	≤ 500

Results, then the compound that gave them:

IC50 [nM]	SMILES
≤ 500	NS(=O)(=O)OC[C@H]1C[C@@H](Nc2cc(N[C@H]3CCc4c(F)ccc(F)c43)ncn2)[C@H](O)[C@@H]1O
≤ 500	NS(=O)(=O)OC[C@H]1C[C@@H](Nc2cc(N[C@H]3CCc4cc(Cl)ccc43)ncn2)[C@H](O)[C@@H]1O
≤ 500	NS(=O)(=O)OC[C@@H]1C[C@@H](Nc2c(Cl)cnc3[nH]c(-c4cccc5ccccc45)nc23)C[C@@H]1O
≤ 500	NS(=O)(=O)OC[C@H]1C[C@@H](Nc2cc(N[C@H]3CCc4ccccc43)ncn2)[C@H](O)[C@@H]1O
≤ 500	CC1(C)C[C@H](Nc2cc(N[C@@H]3C[C@@H](COS(N)(=O)=O)[C@@H](O)C3)ncn2)c2ccccc21
≤ 500	CN(C)c1ccc(-c2nc3c(N[C@@H]4C[C@@H](COS(N)(=O)=O)[C@@H](O)C4)ncnc3[nH]2)c2ccccc12
≤ 500	Cc1nc(N[C@H]2CCc3ccccc32)cc(N[C@@H]2C[C@H](COS(N)(=O)=O)[C@@H](O)[C@H]2O)n1
≤ 500	CO[C@H]1Cc2ccccc2[C@H]1Nc1cc(N[C@@H]2C[C@H](COS(N)(=O)=O)[C@@H](O)[C@H]2O)ncn1
≤ 500	NS(=O)(=O)OC[C@@H]1C[C@@H](Nc2ncnc3[nH]c(-c4cccc5c4OCCO5)nc23)C[C@@H]1O
≤ 500	NS(=O)(=O)OC[C@H]1C[C@@H](Nc2ncnc3[nH]cnc23)[C@H](O)[C@@H]1O
≤ 500	NS(=O)(=O)OC[C@H]1C[C@@H](Nc2cc(N[C@H]3CCc4c(Cl)cccc43)ncn2)[C@H](O)[C@@H]1O
≤ 500	CN(c1ncnc2[nH]c(-c3cccc4ccccc34)nc12)[C@@H]1C[C@@H](COS(N)(=O)=O)[C@@H](O)C1
≤ 500	NS(=O)(=O)OC[C@@H]1C[C@@H](Nc2ncnc3[nH]c(-c4ccccc4Cl)nc23)C[C@@H]1O
≤ 500	NS(=O)(=O)OC[C@H]1C[C@@H](Nc2cc(N[C@H]3CCc4ccccc43)ncn2)C[C@@H]1O
≤ 500	NS(=O)(=O)OC[C@@H]1C[C@@H](Nc2ncnc3[nH]c(-c4ccccc4OCc4ccccc4)nc23)C[C@@H]1O
≤ 500	CC1(C)C[C@H](Nc2cc(N[C@@H]3C[C@H](COS(N)(=O)=O)[C@@H](O)[C@H]3O)ncn2)c2ccccc21
≤ 500	NS(=O)(=O)OC[C@@H]1C[C@@H](Oc2cc(N[C@H]3CCCc4ccccc43)ncn2)C[C@@H]1O
≤ 500	CO[C@H]1Cc2ccccc2[C@H]1Nc1cc(N[C@@H]2C[C@@H](COS(N)(=O)=O)[C@@H](O)C2)ncn1
≤ 500	NS(=O)(=O)OC[C@H]1C[C@@H](Nc2cc(N[C@H]3CCc4cc(F)c(F)cc43)ncn2)[C@H](O)[C@@H]1O
≤ 500	CC1CC(Nc2nccc(N[C@@H]3C[C@H](COS(N)(=O)=O)[C@@H](O)[C@H]3O)n2)c2ccccc21 (stereo partly specified)
≤ 500	NS(=O)(=O)OC[C@@H]1C[C@@H](Nc2ncnc3[nH]c(-c4ccccc4OC(F)(F)F)nc23)C[C@@H]1O
≤ 500	CC1(C)C[C@H](Nc2nccc(N[C@@H]3C[C@H](COS(N)(=O)=O)[C@@H](O)[C@H]3O)n2)c2ccccc21
≤ 500	NS(=O)(=O)OC[C@H]1C[C@@H](Nc2cc(NCC3CCCCC3)ncn2)[C@H](O)[C@@H]1O
≤ 500	NS(=O)(=O)OC[C@@H]1C[C@@H](Oc2cc(NCc3cccc4ccccc34)ncn2)C[C@@H]1O
≤ 500	NS(=O)(=O)OC[C@H]1C[C@@H](Nc2ncnc3[nH]c(-c4ccccc4)nc23)[C@H](O)[C@@H]1O
≤ 500	NS(=O)(=O)OC[C@H]1C[C@@H](Nc2ncnc(N[C@@H]3CCc4ccccc43)n2)[C@H](O)[C@@H]1O
≤ 500	CO[C@H]1Cc2ccccc2[C@H]1Nc1ncnc(N[C@@H]2C[C@H](COS(N)(=O)=O)[C@@H](O)[C@H]2O)n1
≤ 500	C[C@H]1Cc2ccccc2[C@H]1Nc1cc(O[C@@H]2C[C@@H](COS(N)(=O)=O)[C@@H](O)C2)ncn1

Reference: ChEMBL document CHEMBL3879911, “Heteroaryl compounds useful as inhibitors of E1 activating enzymes” (2008)
